Data set [1] in a line: Storage stability (retest period) of the crystalline form. The format is physicochemical. Here is the method: (§1) Stability data supports the retest period of not less than 6 months if bimatoprost crystalline form I is stored in an appropriate container at 2 to 8° C. and at 25° C.
A short description of data set [2]: Thermodynamic stability of the crystalline modifications of bimatoprost. The format is physicochemical. Particulars: temperature range between −70 and +30° C. Here is the method: as §1
The importance of bimatoprost crystalline form I rests primarily (but not exclusively) in its thermodynamic stability. […] For example, the crystalline form I may be easily prepared by recrystallizing, triturating, or reslurring of crystalline form A.

For `CCNC(=O)CCC/C=C\C[C@@H]1[C@@H](/C=C/[C@@H](O)CCc2ccccc2)[C@H](O)C[C@@H]1O` [Bimatoprost crystalline form I, (9S,11R,15S)-9,11,15-trihydroxy-17-phenyl-18,19,20-trinor-5Z,13E-prostadienoic acid ethylamide], the “retest period supported by stability data” value in data set [1] (stored in an appropriate container at 2 to 8° C.) and in data set [1] (stored in an appropriate container at 25° C.) was “not less than 6 months” in each case. The “relative stability among crystalline modifications of bimatoprost” value in data set [2] is given as “most stable crystalline modification”.

For the origin of these results see patent publication US7947740B2, “Bimatoprost crystalline form I” (Finetech Pharmaceutical Ltd, priority 2006, dated 2011).
